From patent publication US8044211B2 (Chroma Therapeutics Ltd., priority 2006, dated 2011)
Like-named read-outs stand apart in the source and are kept apart here.

Tests used:
THP-1 TNFα release = test: LPS-stimulation of THP-1 cells, TNF-α by ELISA; type: cell-based; details: IC50 range, LPS 1 μg/ml, 6 hrs, read-out: Inhibitor activity versus THP-1 TNFα release
Protocol: THP-1 cells were plated in 100 μl at a density of 4×10^4 cells/well in V-bottomed 96 well tissue culture treated plates and incubated at 37° C. in 5% CO2 for 16 hrs. 2 hrs after the addition of the inhibitor in […], of tissue culture media, the cells were stimulated with LPS (E. coli strain 005:B5, Sigma) at a final concentration of 1 μg/ml and incubated at 37° C. in 5% CO2 for 6 hrs. TNF-α levels were measured from cell-free supernatants by sandwich ELISA (R&D Systems #QTA00B).

p38 MAP Kinase a = target: T1, p38 MAP Kinase a (Homo sapiens, UniProt Q16539); test: p38 MAP Kinase activity, radiometric filter-binding assay (Upstate); type: biochemical; details: IC50 range; ATP at or close to Km; read-out: Inhibitor activity versus p38 MAPKa
T1 construct: purchased Upstate (Dundee UK)
Protocol: The ability of compounds to inhibit p38 MAP a Kinase activity was measured in an assay performed by Upstate (Dundee UK). In a final reaction volume of 25 μL, p38 MAP Kinase a (5-10 mU) is incubated with 25 mM Tris pH 7.5, 0.002 mMEGTA, 0.33 mg/mL myelin basic protein, 10 mM MgAcetate and [g-33P-ATP] (specific activity approx. 500 cpm/pmol, concentration as required). The reaction is initiated by the addition of the MgATP mix. After incubation for 40 minutes at room temperature, the reaction is stopped by the addition of 5 μL of a 3% phosphoric acid solution. 10 μL of the reaction is then spotted onto a P30 filtermat and washed three times for 5 minutes in 75 mM phosphoric acid and once in methanol prior to drying and scintillation counting.
Duplicate data points are generated from a ⅓ log dilution series of a stock solution in DMSO. Nine dilutions steps are made from a top concentration of 10 μM, and a ‘no compound’ blank is included. The standard radiometric filter-binding assay is performed at an ATP concentration at, or close to, the Km. Data from scintillation counts are collected and subjected to free-fit analysis by Prism software. From the curve generated, the concentration giving 50% inhibition is determined and reported.

T1 sequence (Q16539 whole entry): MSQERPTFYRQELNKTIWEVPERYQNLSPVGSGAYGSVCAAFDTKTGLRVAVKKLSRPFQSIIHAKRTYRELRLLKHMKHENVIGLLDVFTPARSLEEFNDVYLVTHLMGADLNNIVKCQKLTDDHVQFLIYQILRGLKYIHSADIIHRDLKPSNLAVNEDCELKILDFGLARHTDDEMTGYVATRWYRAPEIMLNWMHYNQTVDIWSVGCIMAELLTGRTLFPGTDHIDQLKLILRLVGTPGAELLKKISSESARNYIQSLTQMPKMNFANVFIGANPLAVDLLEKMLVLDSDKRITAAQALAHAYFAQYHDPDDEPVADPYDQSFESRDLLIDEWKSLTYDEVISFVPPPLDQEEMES

IC50 (THP-1 TNFα release; Homo sapiens, THP-1) | IC50 (p38 MAP Kinase a) | IC50 (THP-1 TNFα release) | SMILES
– | 100 to 1000 nM | > 1000 nM | Nc1c(C(=O)c2ccc(F)cc2)ccc(=O)n1C1CCC(N[C@@H](Cc2ccccc2)C(=O)OC2CCCC2)CC1 (single isomer, unassigned) [Example 35]
> 1000 nM | 100 to 1000 nM | – | Nc1c(C(=O)c2ccc(F)cc2)ccc(=O)n1-c1ccc(CN[C@H](C(=O)OC2CCCC2)c2ccccc2)cc1 [Example 1, Cyclopentyl(S)-{4-[6-Amino-5-(4-fluorobenzoyl)-2-oxo-2H-pyridin-1-yl]benzylamino}phenylacetate]
> 1000 nM | 100 to 1000 nM | – | Nc1c(C(=O)c2ccc(F)cc2)ccc(=O)n1-c1ccc(CN[C@@H](Cc2ccccc2)C(=O)OC2CCCC2)cc1 [Example 2, Cyclopentyl(S)-2-{4-[6-Amino-5-(4-fluorobenzoyl)-2-oxo-2H-pyridin-1-yl]benzylamino}-3-phenylpropionate]
> 1000 nM | 100 to 1000 nM | – | Cc1cc(C(=O)c2ccc(=O)n(-c3ccc(CN[C@H](C(=O)OC4CCCC4)c4ccccc4)cc3)c2N)ccc1F [Example 4, Cyclopentyl(S)-{4-[6-Amino-5-(3-methyl-4-fluorobenzoyl)-2-oxo-2H-pyridin-1-yl]benzylamino}phenylacetate]
– | < 100 nM | – | Nc1c(C(=O)c2ccc(F)cc2)ccc(=O)n1-c1ccc(CCN[C@H](C(=O)O)c2ccccc2)cc1 [Example 118]

The remaining lines, values behind:

SMILES | IC50 (THP-1 TNFα release; Homo sapiens, THP-1) | IC50 (p38 MAP Kinase a) | IC50 (THP-1 TNFα release)
Nc1c(C(=O)c2ccc(F)cc2)ccc(=O)n1C1CCC(N[C@@H](Cc2ccccc2)C(=O)OC2CCCC2)CC1 (single isomer, unassigned) [Example 34] | > 1000 nM | 100 to 1000 nM | –
Nc1c(C(=O)c2ccc(F)cc2F)ccc(=O)n1-c1c(F)cc(OCCCN[C@@H](C(=O)O)c2ccccc2)cc1F [Example 106, (R)-(3-{4-[6-Amino-5-(2,4-difluorobenzoyl)-2-oxo-2H-pyridin-1-yl]-3,5-difluorophenoxy}propylamino)phenyl acetic acid] | – | < 100 nM | –
Nc1c(C(=O)c2ccc(F)cc2F)ccc(=O)n1-c1c(F)cc(OCCCN[C@H](C(=O)O)C2CCCCC2)cc1F [Example 107, (2S)-[(3-{4-[6-amino-5-(2,4-difluorobenzoyl)-2-oxopyridin-1(2H)-yl]-3,5-difluorophenoxy}propyl)amino](cyclohexyl)acetic acid] | – | < 100 nM | –
CC(C)C[C@@H](NCCCOc1cc(F)c(-n2c(N)c(C(=O)c3ccc(F)cc3F)ccc2=O)c(F)c1)C(=O)O [Example 108, N-(3-{4-[6-amino-5-(2,4-difluorobenzoyl)-2-oxopyridin-1(2H)-yl]-3,5-difluorophenoxy}propyl)-D-leucine] | – | < 100 nM | –
CC(C)C[C@H](NCCCCCOc1cc(F)c(-n2c(N)c(C(=O)c3ccc(F)cc3)ccc2=O)c(F)c1)C(=O)O [Example 109, N-(5-{4-[6-amino-5-(4-fluorobenzoyl)-2-oxopyridin-1(2H)-yl]-3,5-difluorophenoxy}pentyl)-L-leucine] | – | < 100 nM | –
CC(C)C[C@H](NC(=O)COc1ccc(-n2c(N)c(C(=O)c3ccc(F)cc3)ccc2=O)cc1)C(=O)O [Example 110, N-({4-[6-Amino-5-(4-fluorobenzoyl)-2-oxopyridin-1(2H)-yl]phenoxy}-acetyl)-L-leucine] | – | 100 to 1000 nM | –
CC(C)C[C@H](NCCc1ccc(-n2c(N)c(C(=O)c3ccc(F)cc3)ccc2=O)cc1)C(=O)O [Example 111, N-[2-(4-{6-amino-5-[(4-fluorophenyl)carbonyl]-2-oxopyridin-1 (2H)-yl}phenyl)ethyl]-L-leucine] | – | 100 to 1000 nM | –
CC(C)C[C@H](NCCCCCOc1cc(F)c(-n2c(N)c(C(=O)c3ccc(F)cc3F)ccc2=O)c(F)c1)C(=O)O [Example 116, N-(5-{4-[6-amino-5-(2,4-difluorobenzoyl)-2-oxopyridin-1(2H)-yl]-3,5-difluorophenoxy}pentyl)-L-leucine] | – | < 100 nM | –
CC(C)C[C@H](NCCc1ccc(-n2c(N)c(C(=O)c3ccc(F)cc3F)ccc2=O)cc1)C(=O)O [Example 117, N-[2-(4-{6-amino-5-[(2,4-difluorophenyl)carbonyl]-2-oxopyridin-1(2H)-yl}phenyl)ethyl]-L-leucine] | – | < 100 nM | –
